Residues, ends and D or L forms follow the SMILES beside them.
Experiments:
[1] = test system: patients suffering with refractory depression; conditions: cited from earlier work; for change in Hamilton Depression Rating Score: patients with refractory depression; for side effects: reported for the NMDAR antagonists
[2] = test system: subjects with MDD that had responded inadequately to another antidepressant agent; assay: Repeat dose study of adjunctive GLYX-13 in human subjects (randomized withdrawal design); assay type: in vivo; conditions: for reduction of CGI-I score: baseline 4.3-4.6
Experimental: A repeat dose study was conducted on human subjects using adjunctive dosing (patients were currently taking another antidepressant medication). Dose levels of 5 mg/kg and 10 mg/kg were used with weekly or biweekly dose during an initial, stabilization period, as shown in FIGS. 7A and 7B (showing typical design of randomized withdrawal maintenance study). The disposition of the subjects, as indicated in FIGS. 7A and 7B was 144 nonresponders and […], where of the responders (70 patients assigned to weekly dosing, 36 patients assigned to biweekly dosing, 55 patients randomized to placebo). […] The study was blinded to third party raters (HDRS-17) and to clinicians of the treatment group (CGI-S).
Methods. GLYX-13 was administered over 12 weeks to subjects who had responded inadequately to another antidepressant agent. Subjects continued taking the other antidepressant during the entire course of the study. The study was divided into 3 parts. During the first 6 weeks, subjects were randomized to receive GLYX-13 at 5 mg/kg IV or 10 mg/kg IV. Subjects returned to the clinic weekly. If subjects had reached clinical response (HDRS-17 reduced ≧50% from baseline) to GLYX-13 administered the previous week, placebo was administered weekly until relapse (HDRS-17 reduced <50% from baseline). At the 6th week of evaluation, subjects who had achieved response to GLYX-13 at some visit were assigned to weekly or biweekly dosing based on time to relapse during placebo administration and randomized to continue receiving GLYX-13 or placebo (randomized withdrawal) for a subsequent 6 weeks of dosing. At the end of the randomized withdrawal period, subjects received placebo injections for 4 weeks. Subjects were blind to the treatments. Third party evaluators blind to treatment and protocol were utilized. Treatment dose and interval were calculated by an interactive web-based response system based on a mathematical algorithm; site personnel were blinded to treatment.

[3] = test system: long-term potentiation (LTP); assay: Long-term potentiation (LTP) after single or multiple bi-weekly doses (FIG. 3)
[4] = cited from earlier work
[5] = end of randomized withdrawal period, biweekly doses

SMILES: CNC1(c2ccccc2Cl)CCCCC1=O (stereo not drawn) [ketamine]
- change in Hamilton Depression Rating Score [1]: significant reductions
- side effects [1]: reportedly severe

SMILES: C[C@@H]([C@@H](O)c1ccc(O)cc1)N1CCC(O)(c2ccccc2)CC1 [CPC-101,606]
- change in Hamilton Depression Rating Score [1]: significant reductions
- side effects [1]: reportedly severe

SMILES: C[C@@H](O)[C@H](N)C(=O)N1CCC[C@H]1C(=O)N1CCC[C@H]1C(=O)N[C@H](C(N)=O)[C@@H](C)O [GLYX-13] (H-TPPT-NH2)
- improvements on HDRS scale during the rest period (randomized withdrawal) ([2]; FIG. 1, compared with the induction (stabilization) period): generally maintained
- improvements on Bech-6 scale during the rest period (randomized withdrawal) ([2]; FIG. 4, compared with the induction (stabilization) period): generally maintained
- improvements on CGI-S scale during the rest period ([2]; FIG. 5, Week 7 and Week 13): generally maintained
- subjects that relapsed more slowly ([2]; assigned to biweekly dosing in the randomized withdrawal period): 33%
- responders that relapsed within 2 weeks following cessation of GLYX-13 ([2]; assigned to weekly dosing in the randomized withdrawal period): Approximately 67%
- responders that relapsed quickly during early treatment ([2]; early treatment): About two-thirds
- responders that relapsed slowly, even during early treatment ([2]; early treatment): About one-third
- reduction of CGI-I score ([2]; end of randomized withdrawal period, 5 mg/kg IV weekly dose group): 2.5 ± 0.14
- percent of subjects that achieved remission ([2]; end of randomized withdrawal period, 5 mg/kg weekly group vs biweekly dose groups): not statistically different from the biweekly dose groups
- reduction of CGI-I score ([2]; end of randomized withdrawal period, 10 mg/kg IV group): 1.6±0.15
- subjects that reached remission (HDRS score <=7) ([2]; end of randomized withdrawal period, 10 mg/kg weekly): 42%
- subjects that achieved remission (HDRS score <=7) [2, 5]: 45%
- subjects that achieved response [2, 5]: 65%
- reduction of CGI-I score ([2]; end of randomized withdrawal period, biweekly groups): 2.5±0.12
- HDRS-17 score in responders ([2]; following 6 weeks of dosing, baseline 23.5±0.34, mean±S.E.M.): 10.3±0.65
- time after withdrawal of GLYX-13 without return of HDRS-17 score toward baseline ([2]; following 6 weeks of dosing, placebo thereafter): up to 10 weeks
- efficacy following forced relapse ([2]; repeated crossover GLYX-13 / placebo (FIG. 6)): Efficacy was reestablished following forced relapse
- side effects with repeated dosing ([2]; repeated dosing): without significant side effect
- tolerance with repeated dosing ([2]; repeated dosing): no tolerance apparent
- ultimate responders that showed response after one dose ([2]; stabilization phase, 5 or 10 mg/kg, after one dose): ~65%
- ultimate responders that showed response after three doses ([2]; stabilization phase, after three doses): ~85%
- ultimate responders that showed response after two doses ([2]; stabilization phase, after two doses): ~72%
- effect on long-term potentiation (LTP) ([3]; 24 hours and one week following a single dose): enhances long-term potentiation
- effect on long-term potentiation (LTP) ([3]; following multiple bi-weekly doses): persistently enhances LTP
- psychotomimetic side effects ([4]; compared with other drugs that target the NMDA receptor): lack the pyschotomimetic side effects
- antidepressant activity ([4]; in vivo): rapid-acting, robust, and sustained antidepressant activity
